Measurements taken from the supplement of paper PMC10307832.

Assays:
Test in all cases: relative viability (nuclei count vs DMSO), 5 days (fraction); higher = more cells survive
[1] = system: NCI-H647
How it was run: (§1)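 After 5 days of treatment, lung cancer cells in 1536-well plates were fixed and stained in a single step (final 0.05% Triton X-100, 1% formaldehyde, 1 ug/ml Hoechst) and their nuclei counted on 4× images. Treatment had been applied by pin tool the day after seeding as one drug alone or as a fixed anchor-drug dose with five library-drug doses (not always all listed) in √10 steps. Relative viability is the nuclei count of treated wells divided by that of vehicle wells, and values are medians of duplicate plates.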

[2] = system: EPLC-272H
How it was run: as §1

[3] = system: SW 1573
How it was run: as §1

[4] = system: LCLC-97TM1
How it was run: as §1

[5] = system: PC-3 [JPC-3]
How it was run: as §1

[6] = system: HCC-44
How it was run: as §1

[7] = system: H3255
How it was run: as §1

[8] = system: BEN
How it was run: as §1

[9] = system: NCI-H650
How it was run: as §1

[10] = system: 201T
How it was run: as §1

[11] = system: NCI-H2170
How it was run: as §1

[12] = system: NCI-H2085
How it was run: as §1

[13] = system: NCI-H1437
How it was run: as §1

[14] = system: NCI-H2342
How it was run: as §1

[15] = system: NCI-H2087
How it was run: as §1

[16] = system: LU99A
How it was run: as §1

[17] = system: NCI-H1975
How it was run: as §1

[18] = system: HCC-827
How it was run: as §1

[19] = system: COR-L 105
How it was run: as §1

[20] = system: EKVX
How it was run: as §1

[21] = system: NCI-H1666
How it was run: as §1

[22] = system: LOU-NH91
How it was run: as §1

`O=c1cc(-c2cccc3c2Sc2ccccc2S3)oc(N2CCOCC2)c1` + CCNC(=O)c1noc(-c2cc(C(C)C)c(O)cc2O)c1-c1ccc(CN2CCOCC2)cc1 [Luminespib] (partner 0.01 µM) showed a relative viability ([1]; first compound 0.08 µM) of 0.123, a relative viability ([1]; first compound 0.253 µM) of 0.138 and a relative viability ([1]; first compound 0.8 µM) of 0.259. The relative viability ([1]; first compound 2.53 µM) was 0.183, the relative viability ([1]; first compound 8 µM) was 0.161 and the relative viability ([2]; first compound 0.08 µM) was 0.182. The relative viability ([2]; first compound 0.253 µM) was 0.405, the relative viability ([2]; first compound 0.8 µM) was 0.431 and the relative viability ([2]; first compound 2.53 µM) was 0.146. The relative viability ([2]; first compound 8 µM) was 0.292, the relative viability ([3]; first compound 0.08 µM) was 0.213 and the relative viability ([3]; first compound 0.253 µM) was 0.18. The relative viability ([3]; first compound 0.8 µM) was 0.495, the relative viability ([3]; first compound 2.53 µM) was 0.194 and the relative viability ([3]; first compound 8 µM) was 0.237. It also gave a relative viability ([4]; first compound 0.08 µM) of 0.815, a relative viability ([4]; first compound 0.253 µM) of 0.733 and a relative viability ([4]; first compound 0.8 µM) of 0.807. The relative viability ([4]; first compound 2.53 µM) was 0.71, the relative viability ([4]; first compound 8 µM) was 0.708 and the relative viability ([5]; first compound 0.08 µM) was 0.685. For the same molecule, the relative viability ([5]; first compound 0.253 µM) was 0.765, the relative viability ([5]; first compound 0.8 µM) was 0.862 and the relative viability ([5]; first compound 2.53 µM) was 0.687. For the same molecule, the relative viability ([5]; first compound 8 µM) was 0.493, the relative viability ([6]; first compound 0.08 µM) was 1.17 and the relative viability ([6]; first compound 0.253 µM) was 0.971. It also gave a relative viability ([6]; first compound 2.53 µM) of 0.993, a relative viability ([6]; first compound 8 µM) of 1.04 and a relative viability ([7]; first compound 0.08 µM) of 0.758. The relative viability ([7]; first compound 0.253 µM) was 0.943, the relative viability ([7]; first compound 0.8 µM) was 0.84 and the relative viability ([7]; first compound 2.53 µM) was 0.884. The relative viability ([7]; first compound 8 µM) was 0.955, the relative viability ([8]; first compound 0.08 µM) was 0.223 and the relative viability ([8]; first compound 0.253 µM) was 0.435. For the same molecule, the relative viability ([8]; first compound 0.8 µM) was 0.294, the relative viability ([8]; first compound 2.53 µM) was 0.271 and the relative viability ([8]; first compound 8 µM) was 0.387. It also gave a relative viability ([9]; first compound 0.08 µM) of 0.711, a relative viability ([9]; first compound 0.253 µM) of 0.756 and a relative viability ([9]; first compound 0.8 µM) of 0.873. The relative viability ([9]; first compound 8 µM) was 0.813, the relative viability ([10]; first compound 0.08 µM) was 1.02 and the relative viability ([10]; first compound 0.253 µM) was 1.05. For the same molecule, the relative viability ([10]; first compound 0.8 µM) was 1.16, the relative viability ([10]; first compound 2.53 µM) was 0.99 and the relative viability ([10]; first compound 8 µM) was 0.969. For the same molecule, the relative viability ([11]; first compound 0.08 µM) was 0.839, the relative viability ([11]; first compound 0.253 µM) was 0.931 and the relative viability ([11]; first compound 0.8 µM) was 0.903. For the same molecule, the relative viability ([11]; first compound 2.53 µM) was 0.63, the relative viability ([11]; first compound 8 µM) was 0.533 and the relative viability ([12]; first compound 0.08 µM) was 0.408. For the same molecule, the relative viability ([12]; first compound 0.253 µM) was 0.526, the relative viability ([12]; first compound 0.8 µM) was 0.39 and the relative viability ([12]; first compound 2.53 µM) was 0.437. The relative viability ([12]; first compound 8 µM) was 0.354, the relative viability ([13]; first compound 0.08 µM) was 1.08 and the relative viability ([13]; first compound 0.253 µM) was 1.29. For the same molecule, the relative viability ([13]; first compound 0.8 µM) was 1.28, the relative viability ([13]; first compound 2.53 µM) was 1.15 and the relative viability ([13]; first compound 8 µM) was 1.21. The relative viability ([14]; first compound 0.08 µM) was 0.676, the relative viability ([14]; first compound 0.253 µM) was 0.68 and the relative viability ([14]; first compound 0.8 µM) was 0.715. The relative viability ([14]; first compound 2.53 µM) was 0.663, the relative viability ([14]; first compound 8 µM) was 0.731 and the relative viability ([15]; first compound 0.08 µM) was 0.2. The relative viability ([15]; first compound 0.253 µM) was 0.163, the relative viability ([15]; first compound 0.8 µM) was 0.155 and the relative viability ([15]; first compound 2.53 µM) was 0.163. For the same molecule, the relative viability ([15]; first compound 8 µM) was 0.2, the relative viability ([16]; first compound 0.08 µM) was 0.211 and the relative viability ([16]; first compound 0.253 µM) was 0.219. For the same molecule, the relative viability ([16]; first compound 0.8 µM) was 0.259, the relative viability ([16]; first compound 2.53 µM) was 0.221 and the relative viability ([16]; first compound 8 µM) was 0.306. It also gave a relative viability ([17]; first compound 0.08 µM) of 0.121, a relative viability ([17]; first compound 0.253 µM) of 0.167 and a relative viability ([17]; first compound 0.8 µM) of 0.15. The relative viability ([17]; first compound 2.53 µM) was 0.231, the relative viability ([17]; first compound 8 µM) was 0.169 and the relative viability ([18]; first compound 0.08 µM) was 0.582. For the same molecule, the relative viability ([18]; first compound 0.253 µM) was 0.588, the relative viability ([18]; first compound 0.8 µM) was 0.656 and the relative viability ([18]; first compound 2.53 µM) was 0.588. It also gave a relative viability ([18]; first compound 8 µM) of 0.639, a relative viability ([19]; first compound 0.08 µM) of 0.701 and a relative viability ([19]; first compound 0.253 µM) of 0.762. For the same molecule, the relative viability ([19]; first compound 0.8 µM) was 0.705, the relative viability ([19]; first compound 2.53 µM) was 0.671 and the relative viability ([19]; first compound 8 µM) was 1.02. The relative viability ([20]; first compound 0.08 µM) was 0.829, the relative viability ([20]; first compound 0.253 µM) was 0.924 and the relative viability ([20]; first compound 0.8 µM) was 0.846. For the same molecule, the relative viability ([20]; first compound 2.53 µM) was 0.883, the relative viability ([20]; first compound 8 µM) was 0.853 and the relative viability ([21]; first compound 0.08 µM) was 1.01. For the same molecule, the relative viability ([21]; first compound 0.253 µM) was 1.09, the relative viability ([21]; first compound 0.8 µM) was 1.01 and the relative viability ([21]; first compound 2.53 µM) was 1.06. It also gave a relative viability ([21]; first compound 8 µM) of 1.17, a relative viability ([22]; first compound 0.08 µM) of 0.327 and a relative viability ([22]; first compound 0.253 µM) of 0.43. The relative viability ([22]; first compound 0.8 µM) was 0.339, the relative viability ([22]; first compound 2.53 µM) was 0.354 and the relative viability ([22]; first compound 8 µM) was 0.357.
